Read-outs that look alike come from different tables or passages of the source.
How the values were obtained:
[1] = Water miscibility of silyl-protected ionic liquid; assay type: physicochemical
Protocol: Dry 3-HOPMIm PF6(2.86 g, 10 mmol) was placed in a round-bottomed flask and dissolved in 50 ml dry THF. Dry trimethylsilyl (TMS) chloride (1.05 g) was added in dry THF solution, dropwise over a period of 30 minutes, with external cooling and stirring, under an atmosphere of dry argon. Stirring was continued for 12 hours.
At the completion of the reaction (TLC), the solvent was removed in vacuo to yield the silyl-protected ionic liquid (3.52 g, 98%), 3-TMSOPMIm PF6.

[2] = target: T1, morphine dehydrogenase (MDH) (Pseudomonas putida, UniProt Q02198); settings: ionic liquid as medium, cited from earlier work; for Net % codeinone: <100 ppm water, glucose dehydrogenase recycling NADP+
T1 sequence (Q02198 1-296): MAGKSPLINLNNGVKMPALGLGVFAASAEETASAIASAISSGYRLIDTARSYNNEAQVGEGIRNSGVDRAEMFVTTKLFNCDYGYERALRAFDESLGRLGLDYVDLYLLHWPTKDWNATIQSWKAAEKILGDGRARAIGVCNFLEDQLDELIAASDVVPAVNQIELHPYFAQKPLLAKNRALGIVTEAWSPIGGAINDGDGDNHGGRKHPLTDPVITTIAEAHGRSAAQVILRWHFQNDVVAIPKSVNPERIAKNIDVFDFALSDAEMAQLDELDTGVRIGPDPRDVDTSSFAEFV

[3] = Viscosity of ionic liquid (AND Vibro SV10); assay type: physicochemical; settings: at 25° C.
Protocol: (§1) Refractive index was measured using a Mettler Toledo Refracto™ 30PX, using a single wavelength light source (the sodium D-line at 589.3 nm). Viscosity was measured using an AND Vibro™ SV10 instrument, which measures viscosity by controlling the amplitude of vibrations of sensor plates submerged in a liquid, detecting changes in the electric current needed to drive the plates.

[4] = Refractive index of ionic liquid (Mettler Toledo Refracto 30PX, sodium D-line 589.3 nm); assay type: physicochemical; settings: sodium D-line at 589.3 nm
Protocol: as §1

[5] = Solubility of penicillin G (sodium salt) in ionic liquid solvents; assay type: physicochemical

With `Cn1cc[n+](CCCO[Si](C)(C)C)c1.F[P-](F)(F)(F)(F)F` [3-TMSOPMIm PF6] the miscibility with water [1] was “effectively immiscible with water”.
In the case of `C[n+]1ccn(CCCO)c1.[Cl-]` [HOPMIm Cl, hydroxypropyl methyl imidazolium chloride], the Net % codeinone ([2]; 1 hour) is listed as 0%, the Net % codeinone ([2]; 4 hours) is listed as 0% and the Net % codeinone ([2]; 24 hours) is listed as “Small”. The “MDH activity in the ionic liquid (in words)” value (from here on “MDH activity”) [2] was “very little activity”.
Work on `CC(=O)O.CCCCN(CCO)CCO` [Pure n-butyl diethanolammonium acetate, n-butyl diethanolammonium acetate] yielded a Viscosity [3] of roughly 285 mPa · s and a Refractive index [4] of 1.464.
For `C[n+]1ccn(CCCO)c1.F[P-](F)(F)(F)(F)F` [HOPMIm PF6], the Net % codeinone ([2]; 1 hour) is listed as 2%, the Net % codeinone ([2]; 4 hours) is listed as 9% and the Net % codeinone ([2]; 24 hours) is listed as 20%. For the same compound, the “MDH activity” value [2] was “high level”.
Work on `CC1(C)S[C@@H]2[C@H](NC(=O)Cc3ccccc3)C(=O)N2[C@H]1C(=O)[O-].[Na+]` [penicillin G (sodium salt)] yielded a solubility ([5]; in dimethyl ethanolammonium crotonate/ethanol (25/75 v/v)) of roughly 50 mg/mL, a solubility ([5]; in dimethyl ethanolammonium trifluoroacetate/ethanol (25/75 v/v)) of 76 mg/mL and a solubility ([5]; in pure dimethyl ethanolammonium crotonate) of roughly 20 mg/mL. The solubility ([5]; in pure dimethyl ethanolammonium trifluoroacetate) was greater than 275 mg/mL.
For `CCCCn1cc[n+](C)c1.O=C([O-])CO` [BMIm glycolate], the Net % codeinone ([2]; 1 hour) is given as 0%, the Net % codeinone ([2]; 4 hours) is given as 5% and the Net % codeinone ([2]; 24 hours) is given as 12%. For the same compound, the “MDH activity” value [2] was “greatly improved”.
For `CCCCn1cc[n+](C)c1.F[P-](F)(F)(F)(F)F` [BMIm PF6], the Net % codeinone ([2]; 1 hour) is given as 0%, the Net % codeinone ([2]; 4 hours) is given as 0% and the Net % codeinone ([2]; 24 hours) is given as 2%. The “MDH activity” value [2] was “extremely low”.
In the case of `C[n+]1ccn(CCCO)c1.O=C([O-])CO` [HOPMIm glycolate], the Net % codeinone ([2]; 1 hour) is given as “small”, the Net % codeinone ([2]; 4 hours) is given as 5% and the Net % codeinone ([2]; 24 hours) is given as 16%. The “MDH activity” value [2] was “moderate level of activity”.
Compound `CCCCN(CCO)CCO.O=C(O)C(F)(F)F` [n-butyl diethanolammonium trifluoroacetate] has a Viscosity [3] of 440 mPa · s and a Refractive index [4] of 1.434.
